{"source": "patent US4668705A", "about": "“Sebosuppressive preparations containing alkoxyaryl alkanols” (Henkel Kommanditgesellschaft auf Aktien, priority 1983, dated 1987)", "key": {"seborrhea of the scalp": {"system": "seborrhea of the scalp", "conditions": "prior art, cited from earlier work; for antiseborrheic effect of known additives: additives to cosmetic preparations"}, "[1]": {"system": "brown skin surface lipid of the rats", "experiment": "Antiseborrheic effect in animal test: browning of the shaved back of rats (skin surface lipid), visual assessment under double blind conditions", "assay_type": "in vivo, male Wistar rats", "design": "key to Evaluation method 2 (points difference between righthand and lefthand side) / Evaluation method 3 (difference in intensity of brown shades vs untreated control animals): ++: very large (≥99.9% probability); +: significant (≥95% probability); 0: minimal (95% probability)", "conditions": "for reduction of sebum (threshold statement in text): at the concentration tested in the Table", "excerpt": "The antiseborrheic effect was closely studied using the animal tests described in the following: The test animals were male Wistar rats having a body weight of 220 to 230 g at the beginning of the tests. The degree of browning on the shaved back of the rats was visually assessed. Browning is produced by the brown skin surface lipid of the rats. This test is based on the observation that young male and female rats washed with surfactant solution or with a lipid solvent and also male rats systematically treated with oestrogen only have the normal light, pink-colored skin after shaving. At the same time, only comparatively very small quantities of lipids can be extracted from the shaved hairs. In order to assess effectiveness, the test substances in solution in alcohol were each brushed onto half the back of 6 rats. The other half was only treated with the solvent minus active substances. Over the test period of 14 days, the test substances were applied once daily for a total of 9 days. A group of 6 rats which remained completely untreated was used for further control. At the end of the test, the animals were shaved on their back and sides and were visually assessed independently by an examination panel of 6 people under double blind conditions. The first criterion evaluated was whether the majority of examiners correctly recognized the treated side, differentiation being carried out as follows: The second criterion evaluated was the difference between the righthand side and the lefthand side, each examiner having to award 1 point per animal on the following basis: darker side--1 point lighter side--0 point and both sides the same--0.5 point Significant differences between the untreated and treated sides in the second method of evaluation indicate the local effectiveness of a substance. The third criterion evaluated was the difference in intensity between the shades of brown using the following scale: 3 points--dark brown 2 points--medium brown 1 point--light brown 0 points--no browning In the third method of evaluation, total point differences are compared between the untreated control animals and the treated and untreated sides of the test animals, significant differences between the control animals and the treated side of the test animals again indicating the effectiveness of a substance. There is generally also a distinct difference between the untreated and treated sides of the same test animals. However, this difference is not always as clear as that between the control animals and the treated sides, for which there may be various reasons, such as mechanical transfer of substance from one side to the other or solvent influence. The following scheme was used for differentiating the effects according to evaluation methods 2 and 3: The sebum reduction is calculated from the points difference by working out the quotient between the points difference ΔP and the number of points for the control group Pk, and expressing the value obtained in percent. Sebum reduction=(ΔP/Pk ·100 [%] […]"}, "[2]": {"conditions": "Conc. 0.5%, topical, once daily, 9 applications in 14 days"}, "[3]": {"conditions": "Rattus norvegicus, 336 h, Conc. 0.5%, topical, once daily, 9 applications in 14 days, ΔP/Pk × 100, read-out: Sebum reduction"}, "[4]": {"conditions": "Conc. 0.2%, topical, once daily, 9 applications in 14 days"}, "[5]": {"conditions": "Rattus norvegicus, 336 h, Conc. 0.2%, topical, once daily, 9 applications in 14 days, ΔP/Pk × 100, read-out: Sebum reduction"}, "[6]": {"conditions": "Conc. 1.0%, topical, once daily, 9 applications in 14 days"}, "[7]": {"conditions": "Rattus norvegicus, 336 h, Conc. 1.0%, topical, once daily, 9 applications in 14 days, ΔP/Pk × 100, read-out: Sebum reduction"}, "[8]": {"conditions": "Conc. 0.1%, topical, once daily, 9 applications in 14 days"}}, "data": [{"compound": "3,7,11-trimethyl-2,6,10-dodecatrien-1-ol ethyl ether and/or acetate", "values": [{"measurement": "antiseborrheic effect of known additives", "setting": "seborrhea of the scalp", "result": "only a very weak antiseborrheic effect"}]}, {"compound": "CCCCCCCCCCCCCCOc1ccc(CO)cc1", "note": "[A, 4-tetradecyloxybenzyl alcohol]", "values": [{"measurement": "Evaluation method 1 (percentage of examiners noticing an effect, treated side recognized)", "setting": "[1]; [2]", "result": "++ (100%)"}, {"measurement": "Evaluation method 2 (points difference between righthand and lefthand side)", "setting": "[1]; [2]", "result": "++ (very large (≥99.9% probability))"}, {"measurement": "Evaluation method 3 (difference in intensity of brown shades vs untreated control animals)", "setting": "[1]; [2]", "result": "++ (very large (≥99.9% probability))"}, {"measurement": "inhibition in vivo at 0.5 %", "setting": "[1]; [3]", "result": 97, "unit": "%"}]}, {"compound": "CCCCCCCCCCOc1ccc(CO)cc1", "note": "[B, 4-decyloxybenzyl alcohol]", "values": [{"measurement": "Evaluation method 1 (percentage of examiners noticing an effect, treated side recognized)", "setting": "[1]; [4]", "result": "++ (100%)"}, {"measurement": "Evaluation method 2 (points difference between righthand and lefthand side)", "setting": "[1]; [4]", "result": "++ (very large (≥99.9% probability))"}, {"measurement": "Evaluation method 3 (difference in intensity of brown shades vs untreated control animals)", "setting": "[1]; [4]", "result": "++ (very large (≥99.9% probability))"}, {"measurement": "inhibition in vivo at 0.2 %", "setting": "[1]; [5]", "result": 95, "unit": "%"}]}, {"compound": "OCc1ccccc1", "note": "[Benzyl alcohol, reference compound]", "values": [{"measurement": "Evaluation method 1 (percentage of examiners noticing an effect, treated side recognized)", "setting": "[1]; [6]", "result": "0 (≤50%)"}, {"measurement": "Evaluation method 2 (points difference between righthand and lefthand side)", "setting": "[1]; [6]", "result": 0}, {"measurement": "Evaluation method 3 (difference in intensity of brown shades vs untreated control animals)", "setting": "[1]; [6]", "result": 0}, {"measurement": "inhibition in vivo at 1 %", "setting": "[1]; [7]", "result": 0, "unit": "%"}]}, {"compound": "CCCCCCCCCCOc1ccc(CCO)cc1", "note": "[C, 2-(4-decyloxyphenyl)-ethanol]", "values": [{"measurement": "Evaluation method 1 (percentage of examiners noticing an effect, treated side recognized)", "setting": "[1]; [6]", "result": "++ (100%)"}, {"measurement": "Evaluation method 2 (points difference between righthand and lefthand side)", "setting": "[1]; [6]", "result": "++ (very large (≥99.9% probability))"}, {"measurement": "Evaluation method 3 (difference in intensity of brown shades vs untreated control animals)", "setting": "[1]; [6]", "result": "++ (very large (≥99.9% probability))"}, {"measurement": "inhibition in vivo at 1 %", "setting": "[1]; [7]", "result": 56, "unit": "%"}, {"measurement": "reduction of sebum (threshold statement in text)", "setting": "[1]", "result": "at least 50%"}]}, {"compound": "CCCCCCCCCCCCOc1ccc(CO)cc1", "note": "[D, 4-dodecyloxybenzyl alcohol]", "values": [{"measurement": "Evaluation method 1 (percentage of examiners noticing an effect, treated side recognized)", "setting": "[1]; [8]", "result": "++ (100%)"}, {"measurement": "Evaluation method 2 (points difference between righthand and lefthand side)", "setting": "[1]; [8]", "result": "++ (very large (≥99.9% probability))"}, {"measurement": "Evaluation method 3 (difference in intensity of brown shades vs untreated control animals)", "setting": "[1]; [8]", "result": "++ (very large (≥99.9% probability))"}, {"measurement": "inhibition in vivo at 0.1 %", "setting": "[1]; Rattus norvegicus, 336 h, Conc. 0.1%, topical, once daily, 9 applications in 14 days, ΔP/Pk × 100, read-out: Sebum reduction", "result": 88, "unit": "%"}]}, {"compound": "CCCCCCOc1ccc(CO)cc1", "note": "[E, 4-hexyloxybenzyl alcohol]", "values": [{"measurement": "Evaluation method 1 (percentage of examiners noticing an effect, treated side recognized)", "setting": "[1]; [4]", "result": "++ (100%)"}, {"measurement": "Evaluation method 2 (points difference between righthand and lefthand side)", "setting": "[1]; [4]", "result": "++ (very large (≥99.9% probability))"}, {"measurement": "Evaluation method 3 (difference in intensity of brown shades vs untreated control animals)", "setting": "[1]; [4]", "result": "++ (very large (≥99.9% probability))"}, {"measurement": "inhibition in vivo at 0.2 %", "setting": "[1]; [5]", "result": 92, "unit": "%"}]}, {"compound": "CCCCCCCCOc1ccc(CO)cc1", "note": "[F, 4-octyloxybenzyl alcohol]", "values": [{"measurement": "Evaluation method 1 (percentage of examiners noticing an effect, treated side recognized)", "setting": "[1]; [4]", "result": "++ (100%)"}, {"measurement": "Evaluation method 2 (points difference between righthand and lefthand side)", "setting": "[1]; [4]", "result": "++ (very large (≥99.9% probability))"}, {"measurement": "Evaluation method 3 (difference in intensity of brown shades vs untreated control animals)", "setting": "[1]; [4]", "result": "++ (very large (≥99.9% probability))"}, {"measurement": "inhibition in vivo at 0.2 %", "setting": "[1]; [5]", "result": 95, "unit": "%"}]}, {"compound": "CCCCCCCCCCOc1ccccc1CO", "note": "[G, 2-decyloxybenzyl alcohol]", "values": [{"measurement": "Evaluation method 1 (percentage of examiners noticing an effect, treated side recognized)", "setting": "[1]; [2]", "result": "++ (100%)"}, {"measurement": "Evaluation method 2 (points difference between righthand and lefthand side)", "setting": "[1]; [2]", "result": "++ (very large (≥99.9% probability))"}, {"measurement": "Evaluation method 3 (difference in intensity of brown shades vs untreated control animals)", "setting": "[1]; [2]", "result": "++ (very large (≥99.9% probability))"}, {"measurement": "inhibition in vivo at 0.5 %", "setting": "[1]; [3]", "result": 20, "unit": "%"}]}, {"compound": "CCCCCCCCCCCCOc1cccc(CO)c1", "note": "[H, 3-dodecyloxybenzyl alcohol]", "values": [{"measurement": "Evaluation method 1 (percentage of examiners noticing an effect, treated side recognized)", "setting": "[1]; [2]", "result": "++ (100%)"}, {"measurement": "Evaluation method 2 (points difference between righthand and lefthand side)", "setting": "[1]; [2]", "result": "++ (very large (≥99.9% probability))"}, {"measurement": "Evaluation method 3 (difference in intensity of brown shades vs untreated control animals)", "setting": "[1]; [2]", "result": "++ (very large (≥99.9% probability))"}, {"measurement": "inhibition in vivo at 0.5 %", "setting": "[1]; [3]", "result": 69, "unit": "%"}, {"measurement": "reduction of sebum (threshold statement in text)", "setting": "[1]", "result": "at least 50%"}]}, {"compound": "CCCCCCCCCCCCCCOc1cccc(CO)c1", "note": "[I, 3-tetradecyloxybenzyl alcohol]", "values": [{"measurement": "Evaluation method 1 (percentage of examiners noticing an effect, treated side recognized)", "setting": "[1]; [2]", "result": "++ (100%)"}, {"measurement": "Evaluation method 2 (points difference between righthand and lefthand side)", "setting": "[1]; [2]", "result": "++ (very large (≥99.9% probability))"}, {"measurement": "Evaluation method 3 (difference in intensity of brown shades vs untreated control animals)", "setting": "[1]; [2]", "result": "++ (very large (≥99.9% probability))"}, {"measurement": "inhibition in vivo at 0.5 %", "setting": "[1]; [3]", "result": 22, "unit": "%"}]}, {"compound": "CCCCCCCCCCOc1cccc(CO)c1", "note": "[K, 3-decyloxybenzyl alcohol]", "values": [{"measurement": "Evaluation method 1 (percentage of examiners noticing an effect, treated side recognized)", "setting": "[1]; [2]", "result": "++ (100%)"}, {"measurement": "Evaluation method 2 (points difference between righthand and lefthand side)", "setting": "[1]; [2]", "result": "++ (very large (≥99.9% probability))"}, {"measurement": "Evaluation method 3 (difference in intensity of brown shades vs untreated control animals)", "setting": "[1]; [2]", "result": "++ (very large (≥99.9% probability))"}, {"measurement": "inhibition in vivo at 0.5 %", "setting": "[1]; [3]", "result": 53, "unit": "%"}, {"measurement": "reduction of sebum (threshold statement in text)", "setting": "[1]", "result": "at least 50%"}]}, {"compound": "S1SSSSSSS1", "note": "[sulfur]", "values": [{"measurement": "antiseborrheic effect of known additives", "setting": "seborrhea of the scalp", "result": "without giving really satisfactory results in regard to efficacy"}, {"measurement": "side effects of known additives", "setting": "seborrhea of the scalp; after prolonged use", "result": "frequently produce side effects after prolonged use"}]}, {"compound": "mercury", "values": [{"measurement": "antiseborrheic effect of known additives", "setting": "seborrhea of the scalp", "result": "without giving really satisfactory results in regard to efficacy"}]}]}
